Data published in patent US7074785B2, “Δ1-pyrrolines used as pesticides” (Bayer Cropscience AG, priority 2001, dated 2006).
Like-named read-outs stand apart in the source and are kept apart here.

How the values were obtained:
[1] = test system: larvae of the mustard beetle (Phaedon cochleariae); assay: Phaedon larvae test; conditions: in Brassica oleracea, 168 h, read-out: Kill rate in % after 7 d, 100 ppm, cabbage leaves dipped, Phaedon cochleariae larvae
[2] = test system: army worm (Spodoptera frugiperda) caterpillars; assay: Spodoptera frugiperda test; format: in vivo; conditions: in Brassica oleracea, 168 h, read-out: Kill rate in % after 7 d, 100 ppm, cabbage leaves dipped, Spodoptera frugiperda
[3] = logP determination by HPLC (reversed-phase C18, EEC Directive 79/831 Annex V.A8); format: physicochemical
Experimental: The logP values stated in the above tables and Preparation Examples are determined in accordance with EEC Directive 79/831 Annex V.A8 by HPLC (High Performance Liquid Chromatography) using a reversed-phase column (C 18). Temperature: 43° C.
In the acidic range at pH 2.3 the determination takes place using 0.1% aqueous phosphoric acid and acetonitrile as the mobile phases; linear gradient from 10% acetonitrile to 90% acetonitrile. Corresponding results are marked in the tables by “a)”
In the neutral range at pH 7.5 the determination takes place using 0.01 molar aqueous phosphate buffer solution and acetonitrile as the mobile phases; linear gradient from 10% acetonitrile to 90% acetonitrile. Corresponding results are marked in the tables by “b)”
Calibration is carried out using unbranched alkan-2-ones (having 3 to 16 carbon atoms), with known logP values (the logP values determined on the basis of the retention times using linear interpolation between two successive alkanones).

[4] = test system: greenhouse red spider mite (Tetranychus urticae); assay: Tetranychus test (OP resistant/dip treatment); format: in vivo; conditions: 168 h, read-out: Kill rate in % after 7 d, 100 ppm, bean plants dipped, Tetranychus urticae OP-resistant
Experimental: Tetranychus Test (OP Resistant/Dip Treatment)
(§1) Solvent: 7 parts by weight of dimethylformamide
After the desired period of time, the effect in % is determined.

[5] = test system: caterpillars of the cabbage moth (Plutella xylostella, sensitive strain); assay: Plutella test, sensitive strain; format: in vivo; conditions: 100 ppm, cabbage leaves dipped
From the text: Plutella Test, Sensitive Strain
as §1

[6] = test system: caterpillars of the cabbage moth (Plutella xylostella), resistant strain; assay: Plutella test, resistant strain; format: in vivo; conditions: 100 ppm, cabbage leaves dipped
From the text: Plutella Test, Resistant Strain
as §1

[7] = test system: Heliothis virescens caterpillars; assay: Heliothis virescens test; format: in vivo; conditions: 100 ppm, soya bean shoots dipped
From the text: as §1

[8] = test system: army worm (Spodoptera exigua) caterpillars; assay: Spodoptera exigua test; format: in vivo; conditions: 100 ppm, cabbage leaves dipped
From the text: as §1

[9] = test system: Boophilus microplus resistant/SP-resistant Parkhurst strain, adult satiated females; assay: Test with Boophilus microplus resistant/SP-resistant Parkhurst strain; format: in vivo; conditions: injected into abdomen, fertile egg deposition after 7 days
Experimental: Test with Boophilus microplus Resistant/SP-Resistant Parkhurst Strain
Test animals: Adult satiated females
(§2) Solvent: Dimethyl sulphoxide
20 mg of active compound are dissolved in 1 ml of dimethyl sulphoxide. Lower concentrations are prepared by dilution in the same solvent.
The test is carried out in 5 replications. 1 μl of the solutions is injected into the abdomen, and the animals are transferred to dishes and kept in a climate-controlled room. After 7 days, activity is checked by examination for deposition of fertile eggs. Eggs whose fertility is not externally visible are stored in glass tubes in a controlled-environment cabinet until the larvae have hatched. An activity of 100% denotes that none of the ticks has laid fertile eggs.

[10] = test system: Adult Musca domestica, Reichswald strain (OP, SP, carbamate-resistant); assay: Test with flies (Musca domestica); format: in vivo; conditions: filter paper disc
Experimental: Test with Flies (Musca domestica)
Test animals: Adult Musca domestica, Reichswald strain (OP, SP, carbamate-resistant)
as §2
20 mg of active compound are dissolved in 1 ml dimethyl sulphoxide. Lower concentrations are prepared by dilution with distilled water.
2 ml of this active compound preparation are pipetted on filter paper discs (Ø9.5 cm) in Petri dishes of corresponding dimensions. After the filter discs have been dried, 25 test animals are transferred to the Petri dishes, which are then covered.
After 1, 3, 5, 24 and 48 hours the activity of the active compound preparation is measured. 100% means that all flies have been killed, 0% means that no fly has been killed.

[11] = HPLC, acidic range pH 2.3, 0.1% aqueous phosphoric acid/acetonitrile; marked a), read-out: log P (pH 2.3)
[12] = HPLC, neutral range pH 7.5, 0.01 molar phosphate buffer/acetonitrile; marked b), read-out: log P (pH 7.5)

Row | Compound | pest or weed control at 100 ppm [1] | pest or weed control at 100 ppm [2] | chromatographic logP [3, 11] | chromatographic logP [3, 12] | pest or weed control at 100 ppm [4] | Kill rate in % after 7 d [5] | Kill rate in % after 7 d [6] | Kill rate in % after 7 d [7] | Kill rate in % after 7 d [8] | Activity/kill in % ([9]; 20 μg/animal) | Activity/kill in % ([9]; 100 μg/animal) | Activity/kill in % ([9]; 4 μg/animal) | chromatographic logP ([3]; reversed-phase C18 HPLC column; HPLC, acidic range pH 2.3, 0.1% aqueous phosphoric acid/acetonitrile; marked a), read-out: log P (pH 2.3)) | chromatographic logP ([3]; reversed-phase C18 HPLC column; HPLC, neutral range pH 7.5, 0.01 molar phosphate buffer/acetonitrile; marked b), read-out: log P (pH 7.5)) | Activity/kill in % ([10]; 20 ppm) | Activity/kill in % ([10]; 100 ppm)
1 | COC(=O)Nc1ccc(-c2ccc(C3CCC(c4c(F)cccc4F)=N3)cc2)cc1 (stereo not drawn) [Compound 1, methyl 4′-[5-(2,6-difluorophenyl)-3,4-dihydro-2H-pyrrol-2-yl]-1,1′-biphenyl-4-ylcarbamate] | ≥ 85% | ≥ 95% | 2.31 | 3.52 | ≥ 85% |  |  |  |  |  |  |  |  |  |  | 
2 | CCCOC(=O)Nc1ccc(-c2ccc(C3CCC(c4c(F)cccc4F)=N3)cc2)cc1 (stereo not drawn) [Compound 2, n-propyl 4′-[5-(2,6-difluorophenyl)-3,4-dihydro-2H-pyrrol-2-yl]-1,1′-biphenyl-4-ylcarbamate] | ≥ 85% | ≥ 95% | 3.02 | 4.24 | ≥ 85% |  |  |  |  |  |  |  |  |  |  | 
3 | CCOC(=O)Nc1ccc(-c2ccc(C3CCC(c4c(F)cccc4F)=N3)cc2)cc1 (stereo not drawn) [Compound 6] | ≥ 85% | ≥ 95% | 2.62 | 3.85 | ≥ 85% | 100% | 100% | 100% | 100% |  |  |  |  |  |  | 
4 | CC(C)OC(=O)Nc1ccc(-c2ccc(C3CCC(c4c(F)cccc4F)=N3)cc2)cc1 (stereo not drawn) [Compound 7] | ≥ 85% | ≥ 95% | 3 | 4.19 | ≥ 85% | 100% | 100% | 100% | 100% | 0% | 40% |  |  |  |  | 
5 | CC(C)COC(=O)Nc1ccc(-c2ccc(C3CCC(c4c(F)cccc4F)=N3)cc2)cc1 (stereo not drawn) [Compound 8] |  |  | 3.32 | 4.54 |  | 100% | 100% | 100% | 100% | 40% | 80% | 0% |  |  |  | 
6 | CNC(=O)Nc1ccc(-c2ccc(C3CCC(c4c(F)cccc4F)=N3)cc2)cc1 (stereo not drawn) [Compound 13] |  |  |  |  |  |  |  |  |  |  |  |  | 1.71 | 2.78 | 0% | 30%
7 | O=C(Nc1ccc(-c2ccc(C3CCC(c4c(F)cccc4F)=N3)cc2)cc1)OCc1cccs1 (stereo not drawn) [Compound 27] | ≥ 85% | ≥ 95% | 3.28 | 4.36 | ≥ 85% |  |  |  |  |  |  |  |  |  |  | 
